# Test results as given in US20230405003A1, “APPLICATION OF THYMIDINE DERIVATIVE IN PREPARATION OF DRUGS” (ONQUALITY PHARMACEUTICALS CHINA LTD., priority 2020, published 2023).
# Tested on: HaCaT cells
# Test: Relief of 5-FU proliferative toxicity to HaCaT cells (CCK-8 cell survival)
# Assay type: cell-based
# Conditions: 5-Fu 20 μM; selected compound final concentration 0.8 μM; HaCaT cells
# Procedure: The cultured skin cell HaCaTs were digested, counted, and inoculated into a 96-well plate with 5000-10000 cells in each well. After 24 h of culture, the wells were divided into Group of blank solvent control, Group of 5-FU, Group of 5-FU+thymidine derivative, Group of 5-FU+the combination of thymidine derivative and uridine derivative. […] adding a solution of 5-FU and a solution of thymidine derivative (the final concentrations of 5-FU and thymidine derivative are shown in Table 3, the solution of thymidine is an aqueous solution, while the solutions of thymidine derivatives are all DMSO solutions); Group of 5-FU+the combination of thymidine derivative and uridine derivative: adding a solution of 5-FU and a mixed solution of thymidine derivative and uridine derivative (the final concentrations of the solution of 5-FU and the mixed solution of thymidine derivative+uridine derivative are shown in Table 3, the solution of thymidine is an aqueous solution, while the mixed solutions of thymidine derivative+uridine derivative are all DMSO solutions); Group of blank solvent control: adding the same type of solution as those of the corresponding Group of 5-FU or Group of 5-FU+thymidine derivative (or the mixed solution of thymidine derivative+uridine derivative) in equal volume. Group of blank solvent control was used as control to exclude the influence of the solvents in Group of 5-FU and Group of 5-FU+thymidine derivative (or the mixed solution of thymidine derivative+uridine derivative) on the results. After additional 48 hours of culture, a Cell Counting Kit-8 (CCK-8) detection kit (C0037, purchased from Shanghai Beyotime Biotechnology) is used to determine the cell survival rate, thereby calculating the proliferative toxicity of 5-Fu/5-DFUR on cells and the relieving effect of the thymidine derivative (or the mixed solution of thymidine derivative+uridine derivative) on the proliferative toxicity. Using GraphPad Prism 6.0 software, the results were statistically analyzed by t-test and plotted.
# (§1) Table 3 lists the combinations of 5-FU and thymidine derivative (or the mixed solution of thymidine derivative+uridine derivative), and the corresponding experimental results (wherein the data in the column of cell survival indicate the corresponding increased percentage of the cell survivals of Group of 5-FU+thymidine derivative or Group of 5-FU+the combination of thymidine derivative and uridine derivative compared with the Group of 5-FU). FIGS. 3-10 list the experimental results of several representative compounds.
# The effect of thymidine derivative or a combination of thymidine derivative and uridine derivative on relieving the proliferative toxicity of a chemotherapeutical drug (5-FU) to HaCaT cells was tested according to the method in Examples 2-29. The test thymidine derivative or the combination of thymidine derivative and uridine derivative, as well as the final concentration of the test compounds were shown in Table 7.
# as §1, with “7” for “3”, “15-21” for “3-10”, “exemplary” for “representative”
row,Structure (SMILES),Cell Survival Rate (increased percentage of cell survival compared with the Group of 5-FU)
1,Cc1cn([C@H]2C[C@H](O)[C@@H](COC(=O)[C@H](C)c3ccc(-c4ccccc4)c(F)c3)O2)c(=O)[nH]c1=O [T29],19%-25%
2,Cc1cn([C@H]2C[C@H](O)[C@@H](COC(=O)[C@@H](C)c3ccc(CC(C)C)cc3)O2)c(=O)[nH]c1=O [T31],23%-30%
3,COc1ccc2c(c1)c(CC(=O)OC[C@H]1O[C@@H](n3cc(C)c(=O)[nH]c3=O)C[C@@H]1O)c(C)n2C(=O)c1ccc(Cl)cc1 [T38],13%-21%

# Same assay, conditions: 5-Fu 20 μM; selected compound final concentration 1.6 μM; HaCaT cells
row,Structure (SMILES),Cell Survival Rate (increased percentage of cell survival compared with the Group of 5-FU)
1,Cc1cn([C@H]2C[C@H](O)[C@@H](COC(=O)[C@H](C)c3ccc(-c4ccccc4)c(F)c3)O2)c(=O)[nH]c1=O [T29],19%-27%
2,Cc1cn([C@H]2C[C@H](O)[C@@H](COC(=O)[C@@H](C)c3ccc(CC(C)C)cc3)O2)c(=O)[nH]c1=O [T31],29%-38%
3,COc1ccc2c(c1)c(CC(=O)OC[C@H]1O[C@@H](n3cc(C)c(=O)[nH]c3=O)C[C@@H]1O)c(C)n2C(=O)c1ccc(Cl)cc1 [T38],29%-38%

# Same assay, conditions: 5-Fu 20 μM; selected compound final concentration 3.13 μM; HaCaT cells
row,Structure (SMILES),Cell Survival Rate (increased percentage of cell survival compared with the Group of 5-FU)
1,Cc1cn([C@H]2C[C@H](O)[C@@H](COC(=O)[C@H](C)c3ccc(-c4ccccc4)c(F)c3)O2)c(=O)[nH]c1=O [T29],35%-42%
2,Cc1cn([C@H]2C[C@H](O)[C@@H](COC(=O)C(C)c3ccc(CC(C)C)cc3)O2)c(=O)[nH]c1=O (some centres unmarked) [T30],39%-47%
3,Cc1cn([C@H]2C[C@H](O)[C@@H](COC(=O)[C@@H](C)c3ccc(CC(C)C)cc3)O2)c(=O)[nH]c1=O [T31],37%-43%
4,COc1ccc2c(c1)c(CC(=O)OC[C@H]1O[C@@H](n3cc(C)c(=O)[nH]c3=O)C[C@@H]1O)c(C)n2C(=O)c1ccc(Cl)cc1 [T38],38%-47%

# Same assay, conditions: 5-Fu 20 μM; selected compound final concentration 6.25 μM; HaCaT cells
row,Structure (SMILES),Cell Survival Rate (increased percentage of cell survival compared with the Group of 5-FU)
1,Cc1cn([C@H]2C[C@H](O)[C@@H](COC(=O)[C@H](C)c3ccc(-c4ccccc4)c(F)c3)O2)c(=O)[nH]c1=O [T29],43%-50%
2,Cc1cn([C@H]2C[C@H](O)[C@@H](COC(=O)C(C)c3ccc(CC(C)C)cc3)O2)c(=O)[nH]c1=O (some centres unmarked) [T30],45%-53%
3,Cc1cn([C@H]2C[C@H](O)[C@@H](COC(=O)[C@@H](C)c3ccc(CC(C)C)cc3)O2)c(=O)[nH]c1=O [T31],41%-47%
4,COc1ccc2c(c1)c(CC(=O)OC[C@H]1O[C@@H](n3cc(C)c(=O)[nH]c3=O)C[C@@H]1O)c(C)n2C(=O)c1ccc(Cl)cc1 [T38],46%-55%

# Same assay, conditions: 5-Fu 20 μM; selected compound final concentration 12.5 μM; HaCaT cells
row,Structure (SMILES),Cell Survival Rate (increased percentage of cell survival compared with the Group of 5-FU)
1,Cc1cn([C@H]2C[C@H](O)[C@@H](COC(=O)[C@H](C)c3ccc(-c4ccccc4)c(F)c3)O2)c(=O)[nH]c1=O [T29],69%-76%
2,Cc1cn([C@H]2C[C@H](O)[C@@H](COC(=O)C(C)c3ccc(CC(C)C)cc3)O2)c(=O)[nH]c1=O (some centres unmarked) [T30],54%-61%
3,Cc1cn([C@H]2C[C@H](O)[C@@H](COC(=O)[C@@H](C)c3ccc(CC(C)C)cc3)O2)c(=O)[nH]c1=O [T31],44%-51%
4,Cc1cn([C@H]2C[C@H](O)[C@@H](COC(=O)C3CCn4c(C(=O)c5ccccc5)ccc43)O2)c(=O)[nH]c1=O (some centres unmarked) [T34],28%-35%
5,COc1ccc2c(c1)c(CC(=O)OC[C@H]1O[C@@H](n3cc(C)c(=O)[nH]c3=O)C[C@@H]1O)c(C)n2C(=O)c1ccc(Cl)cc1 [T38],53%-60%

# Same assay, conditions: 5-Fu 20 μM; selected compound final concentration 25 μM; HaCaT cells
row,Structure (SMILES),Cell Survival Rate (increased percentage of cell survival compared with the Group of 5-FU)
1,Cc1cn([C@H]2C[C@H](O)[C@@H](COC(=O)[C@H](C)c3ccc(-c4ccccc4)c(F)c3)O2)c(=O)[nH]c1=O [T29],54%-62%
2,Cc1cn([C@H]2C[C@H](O)[C@@H](COC(=O)C(C)c3ccc(CC(C)C)cc3)O2)c(=O)[nH]c1=O (some centres unmarked) [T30],44%-51%
3,Cc1cn([C@H]2C[C@H](O)[C@@H](COC(=O)C3CCn4c(C(=O)c5ccccc5)ccc43)O2)c(=O)[nH]c1=O (some centres unmarked) [T34],43%-51%
4,COc1ccc2c(c1)c(CC(=O)OC[C@H]1O[C@@H](n3cc(C)c(=O)[nH]c3=O)C[C@@H]1O)c(C)n2C(=O)c1ccc(Cl)cc1 [T38],58%-65%

# Same assay, conditions: 5-Fu 20 μM; selected compound final concentration 50 μM; HaCaT cells
row,Structure (SMILES),Cell Survival Rate (increased percentage of cell survival compared with the Group of 5-FU)
1,Cc1cn([C@H]2C[C@H](O)[C@@H](COC(=O)[C@H](C)c3ccc(-c4ccccc4)c(F)c3)O2)c(=O)[nH]c1=O [T29],48%-54%
2,Cc1cn([C@H]2C[C@H](O)[C@@H](COC(=O)C(C)c3ccc(CC(C)C)cc3)O2)c(=O)[nH]c1=O (some centres unmarked) [T30],39%-46%
3,Cc1cn([C@H]2C[C@H](O)[C@@H](COC(=O)C3CCn4c(C(=O)c5ccccc5)ccc43)O2)c(=O)[nH]c1=O (some centres unmarked) [T34],69%-77%
4,COc1ccc2c(c1)c(CC(=O)OC[C@H]1O[C@@H](n3cc(C)c(=O)[nH]c3=O)C[C@@H]1O)c(C)n2C(=O)c1ccc(Cl)cc1 [T38],67%-75%

# Same assay, conditions: 5-Fu 20 μM; selected compound final concentration 100 μM; HaCaT cells
row,Structure (SMILES),Cell Survival Rate (increased percentage of cell survival compared with the Group of 5-FU)
1,Cc1cn([C@H]2C[C@H](O)[C@@H](COC(=O)C3CCn4c(C(=O)c5ccccc5)ccc43)O2)c(=O)[nH]c1=O (some centres unmarked) [T34],67%-74%
2,COc1ccc2c(c1)c(CC(=O)OC[C@H]1O[C@@H](n3cc(C)c(=O)[nH]c3=O)C[C@@H]1O)c(C)n2C(=O)c1ccc(Cl)cc1 [T38],55%-63%
